Measured values published in ChEMBL document CHEMBL3046680, “Evidence of stereoselective and segmental-dependant transport of chiral antidiabetic drug nateglinide along the rat small intestine: possible role of efflux transporters” (Med Chem Res, 2013).
Values belong to the compound of their own block, whether it stands above or below them.

Experiments:
[1] = (§1) Apparent permeability across basal to apical side of Sprague-Dawley Rattus norvegicus (rat) everted jejunum sac at 1 mg/ml by HPLC method; assay type: ADME, tissue-based; settings: Sprague-Dawley
[2] = (§2) Apparent permeability across apical to basal side of Sprague-Dawley Rattus norvegicus (rat) normal duodenum sac at 1 mg/ml by HPLC method; assay type: ADME; settings: Sprague-Dawley
[3] = (§3) Apparent permeability across apical to basal side of Sprague-Dawley Rattus norvegicus (rat) normal ileum sac at 1 mg/ml by HPLC method; assay type: ADME, tissue-based; settings: Sprague-Dawley
[4] = (§4) Efflux Rattus norvegicus (rat)io of apparent permeability from basal to apical side over apical to basal side of Sprague-Dawley Rattus norvegicus (rat) ileum sac at 1 mg/ml by HPLC method; assay type: ADME, tissue-based; settings: Sprague-Dawley
[5] = (§5) Efflux Rattus norvegicus (rat)io of apparent permeability from basal to apical side over apical to basal side of Sprague-Dawley Rattus norvegicus (rat) jejunum sac at 1 mg/ml by HPLC method; assay type: ADME, tissue-based; settings: Sprague-Dawley
[6] = (§6) Apparent permeability across basal to apical side of Sprague-Dawley Rattus norvegicus (rat) everted duodenum sac at 1 mg/ml by HPLC method; assay type: ADME; settings: Sprague-Dawley
[7] = (§7) Efflux Rattus norvegicus (rat)io of apparent permeability from basal to apical side over apical to basal side of Sprague-Dawley Rattus norvegicus (rat) duodenum sac at 1 mg/ml by HPLC method; assay type: ADME; settings: Sprague-Dawley
[8] = (§8) Apparent permeability across basal to apical side of Sprague-Dawley Rattus norvegicus (rat) everted ileum sac at 1 mg/ml by HPLC method; assay type: ADME, tissue-based; settings: Sprague-Dawley
[9] = (§9) Apparent permeability across apical to basal side of Sprague-Dawley Rattus norvegicus (rat) normal jejunum sac at 1 mg/ml by HPLC method; assay type: ADME, tissue-based; settings: Sprague-Dawley
[10] = tested on: Jejunum; test: as §1; assay type: ADME, tissue-based
[11] = tested on: Duodenum; test: as §2; assay type: ADME
[12] = tested on: Ileum; test: as §3; assay type: ADME, tissue-based
[13] = tested on: Ileum; test: as §4; assay type: ADME, tissue-based
[14] = tested on: Jejunum; test: as §5; assay type: ADME, tissue-based
[15] = tested on: Duodenum; test: as §6; assay type: ADME
[16] = tested on: Duodenum; test: as §7; assay type: ADME
[17] = tested on: Ileum; test: as §8; assay type: ADME, tissue-based
[18] = tested on: Jejunum; test: as §9; assay type: ADME, tissue-based
[19] = Efflux Rattus norvegicus (rat)io of apparent permeability from basal to apical side over apical to basal side of Sprague-Dawley Rattus norvegicus (rat) duodenum sac at 500 ug/ml by HPLC method; assay type: ADME
[20] = Apparent permeability across apical to basal side of Sprague-Dawley Rattus norvegicus (rat) normal jejunum sac at 500 ug/ml by HPLC method; assay type: ADME, tissue-based
[21] = Apparent permeability across basal to apical side of Sprague-Dawley Rattus norvegicus (rat) everted ileum sac at 500 ug/ml by HPLC method; assay type: ADME, tissue-based
[22] = Apparent permeability across apical to basal side of Sprague-Dawley Rattus norvegicus (rat) normal ileum sac at 500 ug/ml by HPLC method; assay type: ADME, tissue-based
[23] = Apparent permeability across basal to apical side of Sprague-Dawley Rattus norvegicus (rat) everted jejunum sac at 500 ug/ml by HPLC method; assay type: ADME, tissue-based
[24] = Apparent permeability across apical to basal side of Sprague-Dawley Rattus norvegicus (rat) normal duodenum sac at 500 ug/ml by HPLC method; assay type: ADME
[25] = Apparent permeability across basal to apical side of Sprague-Dawley Rattus norvegicus (rat) everted duodenum sac at 500 ug/ml by HPLC method; assay type: ADME
[26] = Efflux Rattus norvegicus (rat)io of apparent permeability from basal to apical side over apical to basal side of Sprague-Dawley Rattus norvegicus (rat) jejunum sac at 500 ug/ml by HPLC method; assay type: ADME, tissue-based
[27] = Efflux Rattus norvegicus (rat)io of apparent permeability from basal to apical side over apical to basal side of Sprague-Dawley Rattus norvegicus (rat) […] sac at 500 ug/ml by HPLC method; assay type: ADME, tissue-based, Ileum
[28] = Tmax in Homo sapiens (human); assay type: ADME, organism-based; settings: in vivo
[29] = Oral bioavailability in Homo sapiens (human); assay type: ADME, organism-based; settings: in vivo
[30] = Dissociation constant, pKa of the compound; assay type: physicochemical
[31] = Elimination half life in Homo sapiens (human); assay type: ADME, organism-based; settings: in vivo, read-out: beta t1/2 (converted)

Papp B→A at 1 mg/ml [1]: 3400 nm/s | Papp A→B at 1 mg/ml [2]: 2600 nm/s | Papp A→B at 1 mg/ml [3]: 1900 nm/s | efflux ratio at 1 mg/ml [4]: 3.1 | efflux ratio at 1 mg/ml [5]: 1.4 | Papp B→A at 1 mg/ml [6]: 3500 nm/s | efflux ratio at 1 mg/ml [7]: 1.3 | Papp B→A at 1 mg/ml [8]: 5900 nm/s | Papp A→B at 1 mg/ml [9]: 2300 nm/s
SMILES: CC(C)[C@H]1CC[C@H](C(=O)N[C@H](Cc2ccccc2)C(=O)O)CC1 (racemic; form 1) [NATEGLINIDE]

Papp [10]: 3.6 ×10⁻⁴ cm/s | Papp [11]: 2.4 ×10⁻⁴ cm/s | Papp [12]: 1.3 ×10⁻⁴ cm/s | Ratio [13]: 3.5 | Ratio [14]: 1.5 | Papp [15]: 3.4 ×10⁻⁴ cm/s | Ratio [16]: 1.4 | Papp [17]: 3.6 ×10⁻⁴ cm/s | Papp [18]: 2.2 ×10⁻⁴ cm/s
SMILES: CC(C)[C@H]1CC[C@H](C(=O)N[C@H](Cc2ccccc2)C(=O)O)CC1 (racemic; form 2) [NATEGLINIDE]

efflux ratio at 500 ug/ml [19]: 1.4 | Papp A→B at 500 ug/ml [20]: 1300 nm/s | Papp B→A at 500 ug/ml [21]: 3800 nm/s | Papp A→B at 500 ug/ml [22]: 1000 nm/s | Papp B→A at 500 ug/ml [23]: 2200 nm/s | Papp A→B at 500 ug/ml [24]: 1400 nm/s | Papp B→A at 500 ug/ml [25]: 2100 nm/s | efflux ratio at 500 ug/ml [26]: 1.7 | efflux ratio at 500 ug/ml [27]: 3.8
SMILES: CC(C)[C@H]1CC[C@H](C(=O)N[C@@H](Cc2ccccc2)C(=O)O)CC1 [(S)-NATEGLINIDE]

efflux ratio at 500 ug/ml [19]: 1.6 | Papp A→B at 500 ug/ml [20]: 1200 nm/s | Papp B→A at 500 ug/ml [21]: 4400 nm/s | Tmax [28]: 30 min | Papp A→B at 500 ug/ml [22]: 900 nm/s | Papp B→A at 500 ug/ml [23]: 2400 nm/s | bioavailability [29]: 70% | Papp A→B at 500 ug/ml [24]: 1500 nm/s | Papp B→A at 500 ug/ml [25]: 2500 nm/s | pKa [30]: 3.1 | half-life [31]: 84 min | efflux ratio at 500 ug/ml [26]: 2 | efflux ratio at 500 ug/ml [27]: 4.8
SMILES: CC(C)[C@H]1CC[C@H](C(=O)N[C@H](Cc2ccccc2)C(=O)O)CC1 [NATEGLINIDE]
